From patent US20230220206A1, “REJUVENATING AGENTS FOR ASPHALT RECYCLING” (BASF SE, priority 2020, published 2023)
Like-named read-outs stand apart in the source and are kept apart here.

Legend:
[1] = MSCR test, percentage elastic recovery; type: physicochemical; details: bitumen 20/30 + 5% compound
[2] = Softening point of rejuvenated aged bitumen; type: physicochemical; details: aged bitumen 50/70 BP + 5% compound
[3] = type: physicochemical; details: aged bitumen 50/70 BP + 5% compound
[4] = MSCR elastic recovery of rejuvenated aged bitumen; type: physicochemical; details: aged bitumen 50/70 BP + 5% compound
[5] = Softening point of rejuvenated aged bitumen; type: physicochemical; details: aged bitumen 50/70 PCK Schwedt + 5% compound
[6] = type: physicochemical; details: aged bitumen 50/70 PCK Schwedt + 5% compound
[7] = MSCR elastic recovery of rejuvenated aged bitumen; type: physicochemical; details: aged bitumen 50/70 PCK Schwedt + 5% compound
[8] = Softening point of rejuvenated RAP bitumen; type: physicochemical; details: bitumen extracted from RAP + 5% compound
[9] = MSCR elastic recovery of rejuvenated RAP bitumen; type: physicochemical; details: bitumen extracted from RAP + 5% compound
[10] = Low temperature performance, bending beam rheometer (BBR) at −16° C.; type: physicochemical; details: bitumen 20/30 + 5% compound
Procedure: (§1) Different bitumen samples were rejuvenated as in Example 1, and the BBR values S (flexural creep stiffness) and m […] were evaluated at −16° C. The results were compared to the not rejuvenated bitumen sample as well as to the bitumen rejuvenated with the benchmark RheoFalt® HP-AM (Comp. 1.3).

[11] = Loss tangent from DSR frequency sweep at 60° C.; type: physicochemical
From the text: In addition, it could be shown that additives according to the present invention perform most of the times better than the common benchmarks according to the standard testing techniques for the low, mid and high temperature range. What cannot be extracted from these measurements however is an indication of the working mechanism.

[12] = type: physicochemical; details: Olexobit 45 + 5% compound
[13] = MSCR elastic recovery of rejuvenated polymer-modified bitumen; type: physicochemical; details: Olexobit 45 + 5% compound
[14] = BBR of rejuvenated polymer-modified bitumen; type: physicochemical; details: Olexobit 45 + 5% compound
Procedure: as §1

[15] = Force ductility of rejuvenated polymer-modified bitumen; type: physicochemical; details: Olexobit 45 + 5% compound
From the text: (§2) Herewith, it will be shown that the positive effects of the here claimed rejuvenating agents can also be applied to PmB, in this case Olexobit 45. Olexobit 45 was therefore rejuvenated according to the procedure of Example 1.

[16] = Ageing index (RTFOT ageing) of rejuvenated polymer-modified bitumen; type: physicochemical; details: Olexobit 45 + 5% compound; viscosity after ageing divided by viscosity before ageing
From the text: as §2

[17] = bitumen 20/30 + 5% compound
[18] = Softening point ring & ball of rejuvenated bitumen; details: bitumen 20/30 rejuvenated with 5% of the compound, 180° C., 30 minutes

## Polypropylenglycol bis glycidylether
[1]; 0.1 kPa
  MSCR % Rec. (0.1 kPa): 8%
[1]; 1.6 kPa
  MSCR % Rec. (1.6 kPa): 2%
[1]; 3.2 kPa
  MSCR % Rec. (3.2 kPa): 1%
[2]
  SP [° C.]: 54.0 °C
[3]
  η(135° C.) [mPas]: 800 mPas
[4]; 0.1 kPa
  MSCR % Rec. (0.1 kPa): 7%
[4]; 1.6 kPa
  MSCR % Rec. (1.6 kPa): 3%
[4]; 3.2 kPa
  MSCR % Rec. (3.2 kPa): 1%
[5]
  SP [° C.]: 52.5 °C
[6]
  η(135° C.) [mPas]: 800 mPas
[7]; 0.1 kPa
  MSCR % Rec. (0.1 kPa): 5%
[7]; 1.6 kPa
  MSCR % Rec. (1.6 kPa): 1%
[7]; 3.2 kPa
  MSCR % Rec. (3.2 kPa): 0%
[8]
  SP [° C.]: 57.0 °C
[9]; 0.1 kPa
  MSCR % Rec. (0.1 kPa): 10%
[9]; 1.6 kPa
  MSCR % Rec. (1.6 kPa): 6%
[9]; 3.2 kPa
  MSCR % Rec. (3.2 kPa): 3%
[10]
  S-value [MPa] (flexural creep stiffness): 105 MPa
  m-value: 0.43
[11]; aged bitumen 50/70 BP + 5% compound, lowest frequency
  tan δ: 75
[11]; aged bitumen 50/70 PCK Schwedt + 5% compound, lowest frequency
  tan δ: 105
[11]; bitumen 20/30 + 5% compound, lowest frequency (0.01 rad/s)
  tan δ: 55
[11]; bitumen extracted from RAP + 5% compound, lowest frequency
  tan δ: 45
[12]
  η(135° C.) [mPas]: 650 mPas
[13]; 0.1 kPa
  MSCR % Rec. (0.1 kPa): 15%
[13]; 1.6 kPa
  MSCR % Rec. (1.6 kPa): 4%
[13]; 3.2 kPa
  MSCR % Rec. (3.2 kPa): 1%
[14]
  BBR S-value [MPa]: 120 MPa
  BBR m-value: 0.39
[15]
  Force Ductility Fmax [N]: 14 N
  Force Ductility W [J/cm^2]: 1.1 J/cm^2
[16]
  AI (ageing index): 2.2
[17]
  η(135° C.) [mPas]: 900 mPas
[18]
  SP [° C.] (softening point): 50.0 °C
